Consider 14 molecules from publication PMC10300352, “Discovery of novel benzylquinazoline molecules as p97/VCP inhibitors” (Frontiers in Pharmacology, 2023).

The nature of data set [1]: Myelosuppressive toxicity evaluation, peripheral blood counts of s180 mice. It is filed as in vivo, ICR mice. To be noted: day 10, 90 μmol/kg/day, vs vehicle.
Method: To determine the effects on myelosuppression, WBC, RBC, PLT count, ALC, and ANC were performed in peripheral blood samples of s180 mice (Figure 7F) on day 10.
The test system of data set [2] is p97. The note with it: cited from earlier work.
In data set [3] the test system is SQSTM1/p62, ATF4, and NF-κB in HCT116 cells. As to the kind of experiment: Western blot of p97 downstream biomarkers. To be noted: DBeQ 10 μM, CB-5083 0.5 μM, 8 h treatment. For orientation: A western blot detects proteins with antibodies after separation by electrophoresis.
Method: HCT116 cells were plated into 6-well plates (2 × 10^6 cells/well) when they were 70%–80% confluent. DMSO (0.5% v/v) or compounds were added, and cells were harvested after 8 h of treatment and washed three times with phosphate-buffered saline (PBS, pH 7.4). […] The secondary antibodies used were goat anti-mouse IgG (HRP, Abcam/ab6789).
The next data set relates to A549. As to the kind of experiment: Cell proliferation assay (MTT/CCK-8), A549. The note with it: Homo sapiens, A549, 48 h, read-out: IC50 A549.
A further data set has as its system K562. Nature of the data set: Cell proliferation assay (MTT/CCK-8), K562. To be noted: Homo sapiens, K562, 48 h, read-out: IC50 K562.
The subject of a further data set is s180. As to the kind of experiment: Cell proliferation assay (MTT/CCK-8), s180. The note with it: Mus musculus, S-180, 48 h, read-out: IC50 s180.
A further data set has as its system HepG2. Nature of the data set: Cell proliferation assay (MTT/CCK-8), HepG2. To be noted: Homo sapiens, HepG2, 48 h, read-out: IC50 HepG2.
The subject of a further data set is HCT116. As to the kind of experiment: Cell proliferation assay (MTT/CCK-8), HCT116. To be noted: Homo sapiens, HCT-116, 48 h, read-out: IC50 HCT116.
In a further data set the test system is RPMI-8226. Nature of the data set: Cell proliferation assay (MTT/CCK-8), RPMI-8226. The note with it: Homo sapiens, RPMI-8226, 48 h, read-out: IC50 RPMI-8226.
The test system of data set [4] is HCT116 cells. Nature of the data set: Apoptosis assay, annexin V/PI staining and flow cytometry. The note with it: 10 μM, 12 h; control cells 3.5%.
Method: Apoptosis was measured by flow cytometry after staining with annexin V and propidium iodide (PI) in HCT116 (Figure 5).
The assay was performed as recommended by the manufacturer. Briefly, the HCT116 cells were seeded in 6-well plates (2 × 10^6 cells/well) and allowed to adhere for 4 hours. Then, each well was treated with DMSO (0.5% v/v) or compounds for 12 h. For the apoptosis experiment, at the end of treatment, the cells were washed twice with cold PBS and then harvested for staining with annexin V in binding buffer for 15 min in the dark at room temperature. The cells were washed in binding buffer and then incubated with propidium iodide. […] The samples were measured using flow cytometry (Beckman, cytoFLEX) within 4 h and analyzed using CytExpert (V 2.4.0.28).
A further data set relates to NCM460. As to the kind of experiment: Cell proliferation assay (MTT/CCK-8), normal colon mucosal epithelial cell line NCM460. The note with it: Homo sapiens, NCM460, 48 h, read-out: IC50 NCM460.
Data set [5] relates to HCT116 cells. Nature of the data set: Cell cycle assay, PI staining and flow cytometry. The class given is cell-based, human. The note with it: for effect on the cell cycle: HCT116, 12 h.
The target in another data set is p97 ATPase (Homo sapiens, UniProt P55072). As to the kind of experiment: p97 ATPase inhibition, ADP-Glo kinase assay. To be noted: for IC50 of inactivation activities against p97: ADP-Glo, 20 nM p97, 20 μM ATP. (In general: ADP-Glo turns the ADP formed in a reaction into a luminescent signal.)
For another data set, the target named is His6-p97 (Homo sapiens, UniProt P55072). As to the kind of experiment: Microscale thermophoresis (MST) binding assay with fluorescent-labeled His6-p97.
For data set [6], the system named is p97. Nature of the data set: In vivo p97 expression measurement by ELISA. The note with it: day 10, oral 90 μmol/kg/day.
Where [7] appears, read: literature values of DBeQ derivatives, Figure 2, read-out: IC50 (p97 inhibitors developed by several research groups).

Read-outs that look alike come from different tables or passages of the source.

Sequence of His6-p97 (P55072 whole entry): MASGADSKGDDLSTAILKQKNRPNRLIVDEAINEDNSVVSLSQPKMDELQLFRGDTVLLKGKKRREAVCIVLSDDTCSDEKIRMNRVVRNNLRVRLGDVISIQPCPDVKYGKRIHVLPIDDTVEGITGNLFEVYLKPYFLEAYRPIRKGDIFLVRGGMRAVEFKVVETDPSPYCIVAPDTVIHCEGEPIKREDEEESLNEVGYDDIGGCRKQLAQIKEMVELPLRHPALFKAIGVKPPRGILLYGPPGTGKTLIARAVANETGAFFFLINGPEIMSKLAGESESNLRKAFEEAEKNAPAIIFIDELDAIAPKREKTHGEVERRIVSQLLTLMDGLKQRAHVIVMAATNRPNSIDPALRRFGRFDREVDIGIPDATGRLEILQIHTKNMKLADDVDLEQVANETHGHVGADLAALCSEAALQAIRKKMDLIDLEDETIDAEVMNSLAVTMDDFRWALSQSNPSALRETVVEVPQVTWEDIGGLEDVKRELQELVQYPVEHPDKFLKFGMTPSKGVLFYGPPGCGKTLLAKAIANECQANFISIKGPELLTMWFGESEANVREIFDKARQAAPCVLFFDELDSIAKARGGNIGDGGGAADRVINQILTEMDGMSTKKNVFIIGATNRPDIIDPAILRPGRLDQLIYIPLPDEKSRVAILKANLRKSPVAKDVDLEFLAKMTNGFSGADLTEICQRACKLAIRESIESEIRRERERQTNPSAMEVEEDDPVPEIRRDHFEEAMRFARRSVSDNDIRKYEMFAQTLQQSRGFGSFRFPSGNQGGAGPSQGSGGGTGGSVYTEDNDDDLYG
Sequence of p97 ATPase (P55072 whole entry): as above
Method for A549: (§1) Cells were treated with the tested compounds in a variety of concentrations and incubated at 37°C for 48 h before measurement. IC50 values were calculated using the percentage of growth of treated cells versus the blank control (Table 2).
(§2) The medium was supplemented with 10% fetal bovine serum (FBS) (Hyclone, SH30084.03). Cells were cultured in an incubator containing 5% CO2 at 37°C.
(§3) Cells were seeded at 3,000–4,000 cells per well in a 96-well plate to test the antiproliferative activity of target compounds. Cells were treated with the compounds or positive controls 6 h after seeding (twofold dilution, eight concentrations). […] The results were analyzed using GraphPad Prism 7.0.
Method for HepG2: as §1, §2, §3
Method for His6-p97: Fluorescent labeling of His6-p97 was carried out using the RED-tris-NTA labeling kit (Catalog No. MO-L011, NanoTemper Technologies) on a NanoTemper Monolith NT.115 following the manufacturer’s protocol. In brief, His6-p97 protein was diluted into 200 nM with PBST (0.05% Tween 20 in PBS), and red-NHS dye was diluted into 100 nM with PBST. Then, His6-p97 and RED-tris-NTA dye were mixed in a 1:1 volumetric ratio and incubated at room temperature for 30 min. […] Then 10 μL of compounds were mixed at different concentrations with 10 μL of dye-labeled His6-p97. Subsequently, well-mixed solutions containing compounds and dye-labeled His6-p97 were loaded into capillaries (Catalog No. MO-K025, NanoTemper Technologies), which were placed in slots 1–16 on the capillary rack. Then, MST experiments were carried out at an ambient temperature, and the instrument parameters were set to 20% LED power and medium MST power. The equilibrium dissociation constants were derived from the M.O. Affinity Analysis software using the K d model based on four independently titrated experiments per condition.
Method for K562: as §1, §2, §3
Method for NCM460: Cells were treated with the tested compounds in a variety of concentrations and incubated at 37°C for 48 h before measurement. […] Furthermore, we evaluated all compounds’ potency toward the normal human cell line NCM460.
as §2, §3
Method for RPMI-8226: as §1, §2, §3
Method for p97 ATPase: As the major indicator of p97 inhibitors, the inactivation of p97 ATPase by the tested compounds was determined using an ADP-Glo kinase assay, in which the formation of ADP represented the activity of ATPase.
His‐tagged human VCP (hVCP) cDNA was amplified by PCR and cloned into PCR‐linearized pET15 b (Merck Millipore, Burlington, MA, United States) using a CloneEZ Kit (Genscript). The pET15 b‐hVCP plasmid was transformed into Escherichia coli BL21 (Rosetta; Novagen, Madison, WI, United States), and the transformed bacteria were pre-cultured in LB medium containing kanamycin and chloramphenicol overnight at 37°C. Protein expression was induced with 1 mmol/L isopropyl‐β‐D‐thiogalactopyranoside.
Protein concentrations were first normalized using a Pierce BCA protein assay kit (Thermo Fisher), and a standard series was prepared with the BSA provided (2 mg/ml–25 μg/μL). Twenty-five microliters of each standard and unknown sample was added to a 96-well plate in triplicate, and 200 μL of working reagent was added to each well and prepared according to the manufacturer’s guidelines.
The protein solution was diluted to 20 nM of p97 with 20 μM ATP in triplicate in 5 μL of 1× Kinase Reaction Buffer A (40 mM Tris, pH 7.5, 20 mM MgCl2, 0.1 mg/mL BSA) and incubated at 37°C for 30 min. After incubation, the solutions were equilibrated to RT for 5 min, and 5 μL of ADP-Glo reagent was added to stop the reaction and consume the remaining ATP. The solution was incubated for 40 min at RT. Ten microliters of kinase detection reagent was added and incubated for 30 min. The sample’s luminescence was recorded using a multimode microplate reader (SMP7, MD). Each sample was averaged across the three measurements and plotted as mean ± standard deviation.

Turning to `Cc1cc2c(C(N)=O)cccc2n1-c1nc2c(c(NCc3ccccc3)n1)COCC2` [CB-5083, reference compound], the ALC entry in data set [1] is on record as “significantly lower”. In addition, in data set [1], the ANC result was “significantly lower”. In addition, the WBC entry in data set [1] is “significantly lower”. Moreover, where the note is “oral 90 μmol/kg/day, 10 days”, the body weight change result is reported as “obvious weight loss effects”. Further, the “death of mice during the in vivo experiments” value (oral 90 μmol/kg/day, 10 days) is “death occurred on day 8”. Further, the IC50 (as a rule, the concentration at which inhibition is half-maximal) in the data set on p97 [2] (setting [7]) was 0.011 µM; with A549, 0.77 ± 0.38 µM; in the data set on K562 it was 0.7 ± 0.42 µM; with s180, 0.24 ± 0.29 µM; in the data set with HepG2 it was 0.16 ± 0.03 µM; in the data set on HCT116 it was 0.47 ± 0.16 µM. For the same molecule, the values for the IC50 in the data set on RPMI-8226 and in the data set on NCM460 were 0.15 ± 0.02 µM and 0.078 ± 0.015 µM, respectively. The “autophagosome formation in the cytoplasm” value in data set [3] is on record as “induced accumulation”. Further, the “levels of the ER stress biomarker (ATF4)” value in data set [3] is listed as “increased levels”. For the same molecule, the “proportion of apoptotic cells” value in the data set with HCT116 cells [4] is given as 20.42%.
As to `O=C(NNc1ncnc2ccccc12)c1cnccn1` [Compound 4, Nʹ-(Quinazolin-4-yl)pyrazine-2-carbohydrazide], in the data set with HCT116 cells [5], the “effect on the cell cycle” value is “cell proportion in the S phase in the compound 4-treated group was notably higher than that in the vehicle group”. For the same molecule, the IC50 is greater than 100 µM in the data set with A549; 66.7 ± 9.97 µM with K562; 1.04 ± 0.37 µM in the data set with s180; 0.108 µM against p97 ATPase; greater than 100 µM in the data set on HepG2; 3.48 ± 0.21 µM in the data set with HCT116. Further, the results for the half-maximal inhibitory concentration (IC50) in the data set on RPMI-8226 and with NCM460 were 5.24 ± 0.45 µM and 49.8 ± 3.25 µM, respectively. Moreover, in the data set on HCT116 cells [4], the “proportion of apoptotic cells” value is reported as 8.31%. At His6-p97, binding was put at a Kd of 0.64 ± 0.26 µM.
`Nc1nccnc1C(=O)NNc1ncnc2ccccc12` [Compound 5, 3-Amino-Nʹ-(quinazolin-4-yl)pyrazine-2-carbohydrazide]: the IC50 in the data set with A549 worked out at 24.2 ± 5.39 µM; with K562 it was 1.79 ± 0.73 µM; in the data set on s180 it was 6.9 ± 2 µM; on p97 ATPase it was 0.072 µM; in the data set on HepG2, 4.53 ± 1.26 µM; in the data set with HCT116, 5.83 ± 1.03 µM. Also, the IC50 with RPMI-8226 worked out at 0.75 ± 0.01 µM; in the data set on NCM460 it was 24.2 ± 1.05 µM. For the same molecule, in the data set with HCT116 cells [4], the “proportion of apoptotic cells” value turned out to be 9.34%. Moreover, the Kd – broadly, the free concentration of one partner at which half of the binding sites on the other are occupied at equilibrium, for simple one-to-one binding – on His6-p97 was 0.4 ± 0.15 µM.
Regarding `COc1cccc2c(NNC(=O)c3cnccn3)ncnc12` [Compound 6, Nʹ-(8-Methoxyquinazolin-4-yl)pyrazine-2-carbohydrazide], in [1], the ALC result is “no significant changes”. Also, the ANC result in data set [1] is recorded as “no significant changes”. Moreover, in [1], the PLT count entry is listed as “no significant changes”. Besides, in data set [1], the RBC result is “no significant changes”. Further, in data set [1], the WBC result is “no significant changes”. The “death of mice during the in vivo experiments” value (mouse, in vivo, po) was “no mice died”. Further, the body weight change result (oral 90 μmol/kg/day, 10 days) is listed as “No obvious loss of body weight”. For the same molecule, the IC50 in the data set with A549 was greater than 100 µM; in the data set on K562, greater than 100 µM; with s180, 1.72 ± 0.69 µM; with HepG2, greater than 100 µM; in the data set with HCT116 it was 2.94 ± 0.1 µM; in the data set with RPMI-8226, 3.61 ± 0.27 µM. Besides, the IC50 with NCM460 came out at 36.2 ± 2.89 µM. Further, the “proportion of apoptotic cells” value with HCT116 cells [4] came to 20.68%.
Turning to `COc1cccc2c(NNC(=O)c3nccnc3N)ncnc12` [Compound 7, 3-Amino-Nʹ-(8-methoxyquinazolin-4-yl)pyrazine-2-carbohydrazide], the “effect on the cell cycle” value in the data set with HCT116 cells [5] was “arrested the cells in both G0/G1 and S phases”. In addition, the IC50 with A549 was greater than 100 µM; in the data set on K562 it was greater than 100 µM; in the data set on s180 it was 32.4 ± 2.57 µM; in the data set on HepG2, greater than 100 µM; with HCT116, greater than 100 µM; with RPMI-8226, 39.8 ± 0.95 µM. In the data set on NCM460, the half-inhibitory concentration (IC50) amounted to 27.3 ± 1.62 µM. Moreover, the “proportion of apoptotic cells” value in the data set on HCT116 cells [4] is reported as 8.94%.
Consider `O=C(O)/C=C/c1ccc(Nc2nc(NCc3cnccn3)c3ccccc3n2)cc1` [Compound 10a, (E)-3-(4-((4-((Pyrazin-2-ylmethyl)amino)quinazolin-2-yl)amino)phenyl)acrylic acid], for which the “IC50 of inactivation activities against p97” value against p97 ATPase was “Inactive”. This molecule gave an equilibrium dissociation constant (Kd) at His6-p97 of 5 µM.
In the same order, the values of `COc1cccc2c(NCc3cnccn3)nc(Nc3ccc(/C=C/C(=O)O)cc3)nc12` [Compound 10b, (E)-3-(4-((8-Methoxy-4-((pyrazin-2-ylmethyl)amino)quinazolin-2-yl)amino)phenyl)acrylic acid] are “Inactive” and greater than 10 µM.
The corresponding values for `NC(=O)/C=C/c1ccc(Nc2nc(NCc3cnccn3)c3ccccc3n2)cc1` [Compound 11a, (E)-3-(4-((4-((Pyrazin-2-ylmethyl)amino)quinazolin-2-yl)amino)phenyl)acrylamide] are “Inactive” and greater than 10 µM.
The corresponding values for `COc1cccc2c(NCc3cnccn3)nc(Nc3ccc(/C=C/C(N)=O)cc3)nc12` [Compound 11b, (E)-3-(4-((8-Methoxy-4-((pyrazin-2-ylmethyl)amino)quinazolin-2-yl)amino)phenyl)acrylamide] are “Inactive” and greater than 10 µM.
`COc1cccc2c(NCc3ccccc3)nc(NCc3ccccc3)nc12` [Compound P2-B11]: in the data set on p97 [2] (setting [7]), the IC50 was 3.4 µM.
`c1ccc(CNc2nc(NCc3ccccc3)c3ccccc3n2)cc1` [DBeQ] displayed a G0/G1 phase fraction in the data set with HCT116 cells [5] (12 h, same concentration as apoptosis measurement, vehicle 32.82%) of 33.53%. Besides, in the data set with HCT116 cells [5] (12 h, vehicle 23.61%), the “percentage of cells in the S phase” value came out at 16.74%. Moreover, the “percentage of cells in the G2/M phase” value in the data set with HCT116 cells [5] (12 h, vehicle 43.51%) is listed as 49.30%. In addition, the “effect on the cell cycle” value with HCT116 cells [5] was “arrested the cell cycle at the G2/M phase”. Further, the ALC entry in data set [1] is on record as “significantly reduced”. Further, the ANC result in data set [1] is “no significant alterations”. Moreover, in data set [1], the PLT count result was “no significant alterations”. Also, the RBC result in [1] is “no significant alterations”. Besides, the WBC result in data set [1] is “significantly reduced”. The IC50 in the data set with p97 [2] (ref Chou et al., 2011, read-out: IC50 in the ATPase activity assays) was less than 10 µM; in the data set with A549 it was 11.6 ± 0.84 µM; in the data set with K562, 5.64 ± 1.08 µM; with s180, 2.69 ± 0.82 µM; against p97 ATPase, 0.657 µM; with HepG2, 7.57 ± 1.2 µM. Further, the IC50 is 4.78 ± 0.22 µM in the data set on HCT116, 4.29 ± 2.46 µM in the data set on RPMI-8226 and 6.44 ± 0.36 µM in the data set with NCM460. For the same molecule, in data set [3], the “autophagosome formation in the cytoplasm” value was “induced accumulation”. Moreover, the “levels of the ER stress biomarker (ATF4)” value in data set [3] is given as “increased levels”. The “p97 concentration in the serum” value in the data set on p97 [6] is “lowered”. Further, the “proportion of apoptotic cells” value in the data set with HCT116 cells [4] came out at 19.65%. This molecule gave a Kd on His6-p97 of 0.68 ± 0.059 µM.
As to `COc1cccc2c(NCc3ccccc3)nc(-n3c(C)cc4c(NS(C)(=O)=O)cccc43)nc12` [ML-240], in the data set with p97 [2] (setting [7]), the IC50 is 0.11 µM.
Take `c1ccc(CNc2nc(N3CCOc4ccccc43)nc3c2CCCC3)cc1` [ML-241]: the concentration for half-maximal inhibition (IC50) with p97 [2] (setting [7]) was 0.1 µM.
Take `Cc1cc2c(NS(C)(=O)=O)cccc2n1-c1nc2c(c(NCc3ccccc3)n1)COCC2` [compound 35]: the IC50 with p97 [2] (setting [7]) is 0.036 µM.
